The record followed here is patent US20190321496A1, “AGENTS AND METHODS FOR THE DIAGNOSIS AND TREATMENT OF DISEASES ASSOCIATED WITH EXTRACELLULAR MATRIX TURNOVER” (Baker IDI Heart and Diabetes Institute Holdings Limited, priority 2016, published 2019).

One assay has as its system unstable plaques. As to the kind of experiment: In vivo treatment of tandem stenosis mice, plaque collagen quantification (Picrosirius Red). The following applies: tandem stenosis ApoE knock out mice, 2 tail vein injections 2 weeks apart, killed 2 weeks after second dose, PBS 14.40±4.522. Also on record: species or system mouse. As to the method: As described elsewhere herein, at 12 weeks of age and 6 weeks after commencement of high fat diet, ApoE−/− mice (C57BL/6J background) were anaesthetized by intraperitoneal injection of a mixture of ketamine (100 mg/kg) and xylazine (10 mg/kg). An incision was made in the neck and the right common carotid artery exposed by dissecting away circumferential connective tissue. A tandem stenosis with 150 μm outer diameter was introduced with the distal stenosis placed 1 mm from the carotid artery bifurcation and the proximal stenosis 3 mm from the distal stenosis. A 6-0 blue braided polyester fibre suture was tied around the carotid artery and a 150 μm needle to achieve the stenosis diameter of 150 μm and the needle was subsequently removed after the suture was secured. The incision wound was sutured close and the mice resumed their high fat diet. […]
Collagen quantification of the Picrosirius Red slides were performed using Image J software (National Institute of Health USA). […] For each section, the quantity of plaque collagen is expressed as the percentage of collagen within the plaque: […]
All quantitative data was analysed by PRISM 6 (GraphPad Software Inc.) and reported as mean +/− one standard deviation. […] Unpaired t test with Welch's correction was also used to analyse the collagen quantification data for the mouse in vivo treatment experiments. […]

The subject of a further assay is MMP14. As to the kind of experiment: Assay of MMP14 activity (FRET peptide) in HT1080 cells treated with Naphthofluorescein. The following applies: n=3, untreated cells 473.7±20.93. The format is cell-based, human. As to the method: Detection of Cy 3.5 signals of the MMP14 FRET peptide was performed using the FLUOstar OPTIMA BMG LABTECH 96 microplate fluorescence reader standardized for optic settings of excitation 544 nm and emission 590 nm, temperature settings at 37° C., with readings taken every 10 minutes over a 120 minute duration and double orbital shaking at a width of 4 mm 1 second prior to each cycle. All confocal live cell studies were performed using the Nikon Air inverted microscope (Tokyo, Japan) with live cell imaging chamber (designed by Monash Micro imaging). Tissue sections were obtained by cryo-sectioning frozen tissue using the Leica CM1950 cryostat (Leica Microsystems, Germany).
A peptide sequence that is preferentially cleaved by MMP14 was used to create a FRET probe with N terminal Cy3.5 and C terminal BHQ (Black Hole Quencher): Cy3.5 SGRIGFLRTACBHQ2 (SEQ ID NO:13). The presence of MMP14 activity cleaves this peptide and separates the Cy3.5 from BHQ. […] The cells were centrifuged at 4000 rcf for 5 minutes, cell pellet was resuspended in PBS containing calcium and magnesium and counted using a haemocytometer. […] The 96 well microplate was incubated at 37° C. inside the FluorSTAR Optima fluorescent microplate reader for 2 hours while Cy 3.5 signal readings in the (Ex544, Em590) channel were taken every 10 minutes. […] The readings were plotted as bar charts in Prism software. […]

On to `O=C1OC2(c3ccccc31)c1ccc3cc(O)ccc3c1Oc1c2ccc2cc(O)ccc12` [Naphthofluorescein], for which the “collagen percentage of the plaque area” value with unstable plaques is 18.87+5.308 percentage of the plaque area. The “Cy3.5 increase (MMP14 FRET peptide)” value in the assay on MMP14 (HT1080 cells treated with 20 μM unaltered free Naphthofluorescein for 1 week, time zero to 120 minutes) came out at 125.0±17.04. Further, the “Cy3.5 increase (MMP14 FRET peptide), pH 5 rendered drug” value in the assay with MMP14 (HT1080 cells, Naphthofluorescein pre-treated in HCl solution at pH 5 for 30 minutes then neutralised with NaOH) is 126.7±2.728.
